This note sets out measurements from patent publication US8377934B2, “Use of stilbene derivatives for treatment and prevention of aquatic mold infections” (State of Israel, Ministry of Agriculture & Rural …, priority 2006, dated 2013).

One data set deals with S. parasitica CBS 540.67. The experiment in a line: Broth macrodilution susceptibility testing (zoospores and cysts). The data set is classed as cell-based, Saprolegnia parasitica. How it is done:
(§1) Two methods were used, each suitable for a different phase of the asexual life cycle of Saprolegnia spp.: i) the broth macrodilution method, for determination of susceptibility of zoospores and cysts; and ii) the agar-dilution method for determination of susceptibility of filamentous hyphae. Each compound was tested three times in each method. Malachite Green was used as positive control.
(§2) This method is a modification of the method used for molds according to EUCAST 7.1 (European Committee on Antibiotic Susceptibility Testing) and CLSI/NCCLS M27-A2 (Clinical Laboratory Standards Institute/National Committee for Clinical Laboratory Standards). For inoculum preparation, S. parasitica isolates were cultured on GP-PS for 7 days with sterile clover seeds at 18° C. […] Cysts and zoospores free from hyphae were collected, and an inoculum of ˜10^3 CFU/ml as measured by hemacytometer counting, was prepared in RPMI. Fluorescent Brightener 28 stock solution was prepared by adding 40% KOH gradually to a 10 mg/ml solution in water, until it was clear, then it was filtered twice through a 0.2 μm cellulose acetate nonpyrogenic sterile filter (Schleicher & Schuell, Dassel, Germany).
(§3) Final drug concentrations in the test tubes ranged from 1×10^4 to 0.01 mg/L. Inoculum of 0.9 ml was added to each of a sterile tube containing 0.1 ml of the serially diluted drug. Two tubes containing drug-free medium and two tubes containing drug-free inoculum were used as controls. The inoculated tubes were incubated at room temperature (15-20° C.) for 24 h. The growth in each tube was then evaluated visually.

The test system of a further data set is S. parasitica T-1. Described as above. The data set is classed as cell-based, Saprolegnia parasitica. As to conditions: 24 h. How it is done:
as §1, §2, §3

The test system of the next data set is tilapia. The experiment in a line: in vivo. The following applies: for LC50: tilapia, mortality up to 96 h. How it is done: LC50 values were determined by static short-term tests as a measure of the relative acute lethal toxicity for tilapia (Standard methods for the evaluation of water and wastewater (1985) 16th ed. American Public Health Association, Washington, D.C. p. 689-819).
Hybrid tilapia (Oreochromis niloticus X Oreochromis aureus) having an average weight of 20 g, were kept in 100 liter polyethylene tanks at a density of 1 fish per 10 liters, at a constant temperature of 21° C. for three weeks before the initiation of the experiment by addition of a test compound to each tank. […] For the latter experiments, fish were acclimated to the required temperature for three weeks prior to addition of the test compound to the tank. Fish were treated with 5 different concentrations of each test compound, determined according to the MIC values of each compound.
Mortality of fish was recorded up to 96 h. Water parameters (O2, NH4^+, NO2^−, pH and Cl^−) were monitored throughout the experiment and were maintained within acceptable limits. The presented results are the mean of two separate experiments.

A further data set relates to various fish species. The experiment in a line: Toxicity testing in various fish species. As to conditions: all five fish species tested, 15° C., up to 96 h. The format is in vivo. Here is the method: LC50 values for Blankophor® BA in various fish species were determined as in Example 2, except that fish were acclimated to 21° C. for three weeks, and then to 15° C. for another two weeks before the initiation of the experiment. Following acclimation to 15° C., Blankophor® BA (100, 200, 500, 1,000 or 2,000 mg/L) was added to the tanks, and mortality of fish was recorded up to 96 h. […] The fish used were: hybrid tilapia (Oreochromis niloticus X O. aureus), average weight 20 g; grey mullet (Mugil cephalus), average weight 70 g; common carp (Cyprinus carpio), average weight 25 g; hybrid striped bass (Morone saxatilis X M. chrysops), average weight 25 g, and grass carp (Ctenopharyngodon idella), average weight 25 g.

In a further data set the test system is S. parasitica. Put plainly: Tilapia-saprolegniosis established infection model. The data set is classed as in vivo. The following applies: 50 and 100 mg/L on 3rd and 8th day. Here is the method: Tilapia were exposed to S. parasitica and treated with Blankophor® BA (100, 50 and 25 mg/L), as described in Example 4, with the exception that Blankophor® BA treatment was started on the 3rd day after initiation of the infection, and repeated on the 8th day. By the starting point of the Blankophor® BA treatment, approximately 50% of the fish had established infection, as indicated by the presence of white skin lesions and a mortality rate of approximately 30%.

A further data set concerns Saprolegnia sp. Put plainly: Non-randomized field trial in a cement pond, oomycete disease. The format is in vivo, hybrid tilapia. The following applies: 50 mg/L. How it is done:
(§4) Following transfer of 2000 hybrid tilapia fish (20-30 g) to a cement pond (1×10^5 L, 21 to 25° C.), white patches of filamentous mycelium were observed on the body and fins of fish, covering in most cases about 80% of the body surface. The mycelia appeared about four days after the transfer, presumably due to opportunistic infection by Saprolegnia sp. following handling stress. Death of 20 to 30 fish per day was recorded. All the dead fish were covered with mycelium, characteristic of Saprolegnia sp., and were also found to be infected with the parasites Gyrodactilus sp. and Trichodina sp.
(§5) The water capacity in the pond was decreased to 3×10^4 L, and treatment with Blankophor® BA (50 mg/L) was initiated. A regimen of 3 treatments (8 h each) with 48 hours intervals between them was used.

For data set [1], the system named is Gyrodactilus sp. and Trichodina sp. Put plainly: Non-randomized field trial in a cement pond, concurrent parasitic disease. The format is in vivo, hybrid tilapia. As to conditions: 50 mg/L, 3 treatments of 8 h at 48 h intervals; 2 days after end. How it is done: as §4, §5
A further data set deals with Microcystis. Put plainly: Delayed Fluorescent Excitation Spectroscopy (DFES) of pure algal culture. The format is cell-based, Microcystis sp. As to conditions: 100 mg/L. An excerpt: The Delayed Fluorescent Excitation Spectroscopy (DFES) method was used for qualitative and quantitative assessment of the influence of Blankophor® BA on the natural population of phytoplankton, and on specific algae strains. Delayed fluorescence is a unique characteristic of photosynthetically active cells, as it is an outcome of recombination that takes place in the thylakoids in the dark (Yacobi Y. Z., V. Gerhardt, Y. Gonen-Zurgil, and A. Sukenik. 1998. Delayed fluorescence excitation spectroscopy: a rapid method for the qualitative and quantitative assessment of natural population of phytoplankton. Wat. Res. 00:1-6).
(§6) Samples from Lake Kinneret and pure cultures of Peridinium sp. and Microcystis sp. were exposed to Blankophor® BA (100 mg/L), for a few minutes and the concentration of chlorophyll-a was determined (in duplicate) according to the excitation spectrum examined (range from 400 to 730 nm). In addition, the exposed and non-exposed samples were assessed for carbon uptake with a ^14C technique.

The subject of data set [2] is Chlorella, Microcystis, Peridinium, Melosira and Lake Kinneret samples. The experiment in a line: 14C-carbon uptake study of photosynthetic activity. The data set is classed as cell-based, phytoplankton. As to conditions: 100 mg/L. How it is done:
FIG. 6 illustrates the effect of exposure to Blankophor® BA (100 mg/L) (□) on photosynthetic activity in pure cultures of Chlorella (C), Microcystis (M), Peridinium (P) and Melosira (Me), and in samples from Lake Kinneret (LK), as determined by ^14C-uptake. Control, (▪).
as §6

Values after ≈ are worked out from the molar mass of the structure shown.

As usually defined, the MIC is the smallest concentration in the dilution series that meets the test's criterion for growth inhibition. `C=O` [Formaldehyde]: the MIC in the data set on S. parasitica CBS 540.67 (Saprolegnia parasitica, CBS540, 24 h, read-out: MIC, Macrodilution) is 100 µg/mL (≈ 3.33 mM); in the data set with S. parasitica T-1 (Saprolegnia parasitica, read-out: MIC, Macrodilution) it was 100 µg/mL (≈ 3.33 mM). The Toxicity result in the data set on tilapia (in vivo) is reported as “Moderate (key: High: high = 50 ppm; Moderate: moderate = 50-200 ppm; Low: low = >1000 ppm)”.
`O=S(=O)([O-])c1cc(Nc2nc(Nc3ccccc3)nc(N(CCO)CCO)n2)ccc1C=Cc1ccc(Nc2nc(Nc3ccccc3)nc(N(CCO)CCO)n2)cc1S(=O)(=O)[O-].[K+].[Na+]` [Blankophor® BA]: the “MIC, Macrodilution” value in the data set with S. parasitica CBS 540.67 (S. parasitica CBS 540.67, 24 h, 15-20° C., geometric mean of three tests) was found to be 200 µg/mL; against S. parasitica T-1 (S. parasitica T-1, 15-20° C., geometric mean of three tests), 100 µg/mL. Besides, the Toxicity entry in the data set with tilapia (Table 4 summary) is reported as “Low (low = >1000 ppm)”. For the same molecule, the LC50 with tilapia (15° C.) was >2,000 mg/L; in the data set on tilapia (18° C.), >2,000 mg/L; in the data set with tilapia (25° C.), >2,000 mg/L; in the data set on various fish species, “greater than 2000 mg/L”. Besides, the “efficacy in promoting survival of infected fish” value with S. parasitica is “highly effective”. Besides, in the data set with Saprolegnia sp. (3 treatments of 8 h at 48 h intervals, 2 days after end), the “presence of Saprolegnia sp. on visual and microscopic examination” value is on record as “free of”. Further, the deaths recorded result in the data set with Saprolegnia sp. (after the first 8 h treatment) is “no further deaths”. In addition, the “prevalence and intensity of saprolegniosis” value with Saprolegnia sp. (after the first 8 h treatment) was “Significant reduction”. Also, in data set [1], the “presence of parasites on visual and microscopic examination” value was “free of”. Moreover, the “photosynthetic activity versus non-treated samples” value in the data set with Microcystis is “no difference”. For the same molecule, in data set [2], the “photosynthetic activity (14C-carbon uptake)” value was “did not decrease”.
